Consider 5 molecules from paper PMC8394219, “In Vitro Nephrotoxicity Studies of Established and Experimental Platinum-Based Compounds” (Biomedicines, 2021).

In data set [1] the test system is ciPTEC. Nature of the data set: Gene expression profiling by high-throughput RT-qPCR in ciPTECs. It is filed as cell-based, human. The note with it: 24 h; for expression of genes related to transcription factors (general): PN149 20 µM, cisplatin 50 µM, oxaliplatin 150 µM; for HMOX1 gene expression: ROS-inducible gene; for IL-8 gene expression: marker for inflammation; for PMAIP1 gene expression: pro-apoptotic gene. The protocol: Gene expression profiles were generated using a high-throughput RT-qPCR method previously established in the institute. ciPTECs were cultivated in T25 flasks as stated before. […] RNA isolation and generation of gene expression profiles using a Fluidigm dynamic array on a BioMark™ (Rheinau, Germany) system were performed as previously described. For comparative analysis of ciPTEC with primary kidney cells, 5 × 10^5 NT cells were seeded in 10 cm dishes and cultivated for 24 h. […] Gene expression profiles in ciPTEC were generated in three independent experiments. Due to the limited amount of tissue material, gene expression analysis in primary kidney cells was performed in two independent experiments.
(Quantitative PCR measures a nucleic acid by following its amplification.)

In data set [2] the test system is ciPTEC. Nature of the data set: Intracellular platinum accumulation by AAS in ciPTECs. Format: in vitro ADME, human. The note with it: 2 h. The protocol:
The renal cell line ciPTEC (conditionally immortalized proximal tubule epithelial cells), which was purchased from Dr. Martijn Wilmer, was used in the current study. ciPTECs were cultured in DMEM-HAM’s F12 phenol red-free medium (Gibco, Thermo Fisher Scientific, Dreieich, Germany) supplemented with 10% fetal calf serum (FCS) (Invitrogen, Darmstadt, Germany), 5 µg/mL insulin, 5 µg/mL transferrin, 5 ng/mL selenium, 36 ng/mL hydrocortisone, 10 ng/mL EGF (epidermal growth factor) and 40 pg/mL tri-iodothyronine (Sigma-Aldrich, Steinheim, Germany). For maintaining the proliferation status, cells were cultured at 33 °C in a humidified atmosphere of 5% CO2 in medium supplemented with 1% penicillin/streptomycin (P/S) (Sigma-Aldrich, Steinheim, Germany). […]
Atomic absorption spectroscopy (AAS) was used to determine the intracellular accumulation after treatment with the platinum compounds. ciPTECs were seeded in T75 flasks and cultivated as stated before. […] Cells were then harvested via centrifugation and total cell count was determined. […] The residue was dissolved in 0.2% HNO3 and platinum amount was analyzed at a wavelength of […] in a graphite furnace using a PinAAcle 900 T (Perkin Elmer, Waltham, MA, USA). […] Intracellular accumulation was determined in three independent experiments and was calculated as ng Pt/10^6 cells.

Data set [3] has as its system ciPTEC. As to the kind of experiment: Cytotoxicity by relative cell count (RCC). It is filed as cell-based, human. The note with it: 24 h incubation; for IC50: cell count after 48 h post-cultivation; for cell number compared to the control: 48 h post-cultivation. The protocol:
The renal cell line ciPTEC (conditionally immortalized proximal tubule epithelial cells), which was purchased from Dr. Martijn Wilmer, was used in the current study. ciPTECs were cultured in DMEM-HAM’s F12 phenol red-free medium (Gibco, Thermo Fisher Scientific, Dreieich, Germany) supplemented with 10% fetal calf serum (FCS) (Invitrogen, Darmstadt, Germany), 5 µg/mL insulin, 5 µg/mL transferrin, 5 ng/mL selenium, 36 ng/mL hydrocortisone, 10 ng/mL EGF (epidermal growth factor) and 40 pg/mL tri-iodothyronine (Sigma-Aldrich, Steinheim, Germany). For maintaining the proliferation status, cells were cultured at 33 °C in a humidified atmosphere of 5% CO2 in medium supplemented with 1% penicillin/streptomycin (P/S) (Sigma-Aldrich, Steinheim, Germany). […] For comparative analysis with the data obtained with the permanent cell line ciPTEC, studies were performed with primary patient-derived renal normal tissue cells (NT), which were obtained from patients at the University Medical Center Mainz. Cells were isolated from primary renal cancer samples of patients who underwent nephrectomy at the Department of Urology, University Medical Center Mainz. The study was performed in agreement with the Declaration of Helsinki and approved by local ethics committee (No. 837.005.09, Landesärztekammer Rheinland-Pfalz, Mainz, Germany). Each patient provided informed consent. NT cells were cultivated in RPMI-1640 medium (Sigma-Aldrich, Steinheim, Germany) containing 10% FCS and 5% P/S at 37 °C in a humidified atmosphere of 5% CO2.
Toxicity was determined by relative cell count (RCC). ciPTECs were seeded in duplicates in T25 flasks and cultivated as stated before. […] Cell count was then determined using a CASY® cell counter (CASY® TTC Cell Counter & Analyzer System). The cell counts of the treated samples were normalized to the untreated control to obtain the RCC expressed as percentage. RCC was determined in three independent experiments.

The subject of data set [4] is organic cation transporter 2 (OCT2). More on the design: method as in PMID 17582384, PMID 21144842. Conditions: cited from earlier work.
Data set [5] deals with primary patient-derived renal normal tissue cells (NT). As to the kind of experiment: Gene expression profiling by high-throughput RT-qPCR in primary renal normal tissue cells. Format: cell-based, human. Conditions: normal tissue (primary kidney cells), 20 µM cisplatin, 24 h. The protocol: The renal cell line […] (conditionally immortalized proximal tubule epithelial cells), which was purchased from Dr. Martijn Wilmer, was used in the current study. […] For maintaining the proliferation status, cells were cultured at 33 °C in a humidified atmosphere of 5% CO2 in medium supplemented with 1% penicillin/streptomycin (P/S) (Sigma-Aldrich, Steinheim, Germany). For the experiments, […] were seeded at a density of 55,000 cells/cm^2 in cell culture flasks and were cultivated for 24 h at 33 °C. After 24 h, cells were transferred to 37 °C for maturation, while the medium was refreshed with medium containing no P/S. Cells were kept at 37 °C for 7 days while the medium was replaced every 2-3 days. For comparative analysis with the data obtained with the permanent cell line […], studies were performed with primary patient-derived renal normal tissue cells (NT), which were obtained from patients at the University Medical Center Mainz. Cells were isolated from primary renal cancer samples of patients who underwent nephrectomy at the Department of Urology, University Medical Center Mainz. The study was performed in agreement with the Declaration of Helsinki and approved by local ethics committee (No. 837.005.09, […]-Pfalz, Mainz, Germany). Each patient provided informed consent. […]

A further data set concerns ciPTECs. More on the design: method as in PMID 26821801. The note with it: ciPTECs treated with cisplatin for 24 h, MTT assay ref 45; read-out: TC50 (≡ IC50); cited from earlier work. For orientation: Formazan colour is commonly taken as a measure of viable cells.
The next data set has as its system MATE1. Conditions: cited from earlier work.
Data set [6] in a line: Anti-oxidant capacity: fluorescein consumption induced by AAPH-derived peroxyl radicals. The note with it: for effect on consumption of fluorescein: fluorescein 10 µM, AAPH 50 mM, phosphate buffer pH 7.4, 37 °C, cisplatin 10 µM, PN149 10, 25, 50 µM. The protocol: The influence of PN149 on the rates of the reaction of fluorescein with free radicals generated by the azo initiator 2,2′-azobis(2-amidinopropane) dihydrochloride (AAPH) was studied according to [35] in phosphate buffer (PB, 50 mM, pH 7.4) by measuring the decay of the probe at 494 nm with absorption spectrophotometer Specord UV–Vis equipped with a thermostated cell maintained at 37 °C. […] The lag phase of the reaction means no changes in the optical density of the reaction mixture. AAPH and fluorescein were purchased from Sigma-Aldrich, JM216 [e-ammine-d-(cyclohexylamine)-a,f-bis(acetato)-b,c-dichloroplatinum(IV)] was obtained as described in [36].

The next data set concerns MATE2-K. Conditions: cited from earlier work.
For data set [7], the system named is testicular germ cell tumors. Also on record: method as in PMID 12835671. Conditions: combination therapy against testicular germ cell tumors ref 2; cited from earlier work.

As usually defined, the IC50 is the concentration that inhibits the measured activity by half. Turning to `N.N.O=C([O-])C1(C(=O)[O-])CCC1.[Pt+2]` [Carboplatin], in the data set with ciPTEC [1], the NFKB2 gene expression entry is on record as “repressed transcript levels”, the “expression of genes related to transcription factors (general)” value (“expression of genes related” for short) is reported as “no general down-regulation”, the HMOX1 gene expression entry was “strongly induced” and the IL-8 gene expression result is given as “repressed gene expression”. Moreover, the PMAIP1 gene expression result with ciPTEC [1] is given as “strong concentration-dependent increase”. The “ng Pt/10^6 Cells (platinum accumulation)” value in the data set with ciPTEC [2] (300 µM carboplatin) amounted to 18 ± 2 ng Pt/10^6 cells. In addition, in the data set with ciPTEC [3], the IC50 stood at 175 µM. In addition, the “uptake via / affinity to OCT2” value in [4] was “no affinity to this transporter”.

For the molecule `N.N.[Cl][Pt][Cl]` [Cisplatin], the “expression of DNA repair-related genes” value in data set [5] is “reduced transcript levels”. The “expression of DNA repair-related genes” value with ciPTEC [1] (20 µM cisplatin) was “increased expression of several repair-related genes”. Besides, in the data set on ciPTEC [1], the NFKB2 gene expression entry is given as “slightly enhanced”, the “expression of genes related” value was “strong down-regulation of gene transcripts”, the HMOX1 gene expression entry was “slightly lesser effects” and the IL-8 gene expression entry is “increased transcript levels”. The PMAIP1 gene expression result in the data set on ciPTEC [1] is given as “strong concentration-dependent increase”. In the data set with ciPTECs, the IC50 was 34 µM. Moreover, the “affinity for MATE1” value in the data set on MATE1 is recorded as “only low affinity for MATE1”. Further, the “cell number compared to the control” value in the data set with ciPTEC [3] (50 µM) was “less than 10%”. For the same molecule, 13 µM corresponded to half-maximal inhibition with ciPTEC [3] (IC50). For the same molecule, the “effect on consumption of fluorescein” value in [6] is “only slightly slowed down the consumption of fluorescein”. In the data set on MATE2-K, the “affinity for MATE2-K” value is “no affinity for MATE2-K”. Besides, in data set [7], the cure rates result is recorded as “over 80%”.

As to `O=C1[O][Pt]2([NH][C@@H]3CCCC[C@H]3[NH]2)[O]C1=O` [Oxaliplatin], in the data set with ciPTEC [1], the NFKB2 gene expression result is “slightly enhanced”, the “expression of genes related” value is “widespread gene repression was restricted to the highest concentration used”, the HMOX1 gene expression entry was “slightly lesser effects” and the IL-8 gene expression result was “increased transcript levels”. Besides, the PMAIP1 gene expression result in the data set on ciPTEC [1] is reported as “strong concentration-dependent increase”. Also, the “ng Pt/10^6 Cells (platinum accumulation)” value in the data set on ciPTEC [2] (50 µM) is given as 11 ± 2 ng Pt/10^6 cells. Besides, in the data set on MATE1, the “affinity for MATE1” value is “substrate for both MATE1 and MATE2-K”. For the same molecule, in the data set on ciPTEC [3], the IC50 is 51 µM.

On to `CC(=O)[O-].CC(=O)[O-].N.NC1CCCCC1.[Cl-].[Cl-].[Pt+4]` [JM216, e-ammine-d-(cyclohexylamine)-a,f-bis(acetato)-b,c-dichloroplatinum(IV)], for which the “kinetics of fluorescein consumption” value in data set [6] (JM216 10 M as printed, data not shown) is on record as “practically coincided with curve 2 for cisplatin”.

In the case of “e-ammine-d-(3-amino-2,2,5,5-tetramethylpyrrolidine-1-oxyl)-a,f-bis(butanoato)-b,c-dichloro-platinum(IV) [PN149]”, in the data set with ciPTEC [1], the NFKB2 gene expression entry is on record as “repressed transcript levels”, the “expression of genes related” value is listed as “widespread gene repression”, the HMOX1 gene expression result is listed as “strongly induced” and the IL-8 gene expression entry is recorded as “repressed gene expression”. Further, the PMAIP1 gene expression result in the data set with ciPTEC [1] is “peaked at 20 µM”. In the data set on ciPTEC [1] (heat-shock sensitive gene), the HSPA1A gene expression entry was “strong concentration-dependent increase”. Besides, the “cell number compared to the control” value in the data set on ciPTEC [3] (concentration not stated (Figure 2A)) was “less than 5%”. In the data set on ciPTEC [3], this molecule displayed a 50% inhibitory concentration (IC50) of 6 µM. Also, in data set [6], the “effect on consumption of fluorescein” value is listed as “effectively inhibited the consumption of fluorescein”.
